“And” between values parts separate entries of the source, which are not always exact repeats. Identical values can stand only once. The source made the active and inactive calls.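 The calls were made as follows: active = compounds giving half or more protection of infected cells from virus-caused growth loss, again on retest; inactive = the rest.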 Where a SMILES comes first, the peptide text is derived from it. [ ]: non-standard residue; d: D form. The star is where a group is joined. Phe(4-NO2) = N[CH](Cc1ccc([N+](=O)[O-])cc1)C(=O)O; Boc = CC(C)(C)OC(=O)*
Tested on: CEM cells HIV-1 protection, formazan growth assay
Assay: NCI AIDS Antiviral Assay
Conditions: for IC50: measured here: growth of uninfected CEM cells
Procedure, shortened: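 Protection of CEM cells against HIV-1 measured as cell growth via soluble formazan read-out, with five concentrations tested on both infected and uninfected cells; failure to protect may reflect toxicity.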

SMILES | EC50 [µM] | IC50 | outcome
CCCN(CCC)C(=S)Sc1nc(C)nc(N2CCN(c3nc(C)nc(SC(=S)N(CCC)CCC)c3[N+](=O)[O-])CC2)c1[N+](=O)[O-] | > 200 | 2.04 µM | 
c1cc[c]([Sn]([S]c2ccccn2)([c]2ccccc2)[c]2ccccc2)cc1 | > 2 | 0.339 µM | 
Nc1ccc(C(=O)N/C(=C\C=C\c2ccco2)c2nc3c4c(ccc3[nH]2)C(=O)c2ccccc2C4=O)cc1 |  |  | inactive
CC[C@H]1CC(=O)c2c(cc3c(c2O)C(=O)c2ccccc2C3=O)[C@@]1(C#N)C(=O)OC(C)(C)C |  |  | inactive
O=C(c1ccccc1)n1c(Cc2ccccc2)nc2cc(C34CC5CC(CC(C5)C3)C4)ccc21 | > 100 | 16.6 µM | 
Cc1cn(C(C)OCCN(OC(=O)Oc2ccccc2)C(=O)Oc2ccccc2)c(=O)[nH]c1=O (stereo not drawn) | > 200 | > 200 µM | 
N#CN=C1C=CC(=C(C#N)C#N)C=C1 |  |  | inactive
CCOC(=O)/C(C#N)=C/c1ccc(Br)cc1 | > 93.3 | > 93.3 µM | 
COc1ccc(OC2(c3cc(OC)ccc3OC)OC(=O)c3ccccc32)cc1 (stereo not drawn) | > 13.2 | > 13.2 µM | 
C[n+]1c2ccccc2c(NC(CCCN=C(N)N)C(=O)O)c2ccccc21 (stereo not drawn) |  |  | inactive
O=C(/C(=C1\SS/C(=C(/C(=O)c2ccccc2)c2ccccc2)S1)c1ccccc1)c1ccccc1 | > 200 | > 200 µM | 
CCOC(=O)C1(C/C=C(/C)Cl)CCCC1=O (stereo not drawn) | > 204 | > 204 µM | 
CCCCCCCCCC1C(C)c2c([nH]c3ccccc23)C2C(=O)N(c3ccccc3)C(=O)C21 (stereo not drawn) |  |  | inactive
O=Cc1[nH]c(=O)[nH]c(=O)c1CO | > 200 | 93.3 µM | 
Cc1cc2cc3ccc(Cl)nn3c2nn1 | > 200 | > 200 µM | 
Oc1ccc(Cl)cc1Cc1ccccc1 | > 200 | 39.8 µM | 
COc1cccc(CCNc2c(C#N)c3n(c4ccccc4[n+]3C)c3ncccc23)c1 | > 200 | 1 µM | 
CC(=O)c1cccc(NC(=O)C(=O)C(C2OC(=O)c3ccccc32)[N+](=O)[O-])c1 (stereo not drawn) | > 468 | > 468 µM | 
O=C(O)c1cc(O)cc(O)c1N=Nc1ccc(CCc2ccc(N=Nc3c(O)cc(O)cc3C(=O)O)cc2S(=O)(=O)O)c(S(=O)(=O)O)c1 | 2.75 | 75.9 µM | 
O=C(Nc1cc2c(oc1=O)CCC2)c1cnccn1 | > 100 | > 100 µM | 
Cc1cn(C2CC(N=[N+]=[N-])C(COC(=O)CCOCCCCCCCCN=[N+]=[N-])O2)c(=O)[nH]c1=O (stereo not drawn) | 0.00631 | 64.6 µM | 
CC1=Nc2c([nH]c(=S)[nH]c2=O)NC(c2c(Cl)cccc2Cl)C1 (stereo not drawn) | > 7.76 | > 7.76 µM | 

SMILES | EC50 [µM] | IC50 | outcome
N#CC1(C#N)NC(c2cccs2)C(C#N)(C#N)NC1c1cccs1 (stereo not drawn) | > 200 | 26.9 µM | 
CCCCCCCCCCCCCC1CCC(CC)N1 (stereo not drawn) | > 331 | > 331 µM | 
Cc1ccc(/C([O-])=C(/C(=S)Nc2ccccc2)[n+]2ccccc2)cc1 | > 200 | > 200 µM | 
CCN1C(c2ccc(Cl)cc2)=NN2C(C)=CC(C)(C)N=C12 | > 85.1 | 60.3 µM | 
COc1cccc(C(=O)C2C(=O)N(C)CCc3ccccc32)c1OC (stereo not drawn) | > 148 | > 148 µM | 
Nc1nc(Cl)c(N)c(NCC2(CO)CC(OCc3ccccc3)C2)n1 (stereo not drawn) | > 20 | 2.14 µM | 
Cc1cccc(C2SCc3nc4ccccc4n32)c1 (stereo not drawn) |  |  | inactive
COc1ccc2c(c1)c1c3c(ccc4ncn2c43)N(CCN(C)C)CCN=1 | > 20 | 0.324 µM | 
COC12OC3(C4OC41)C(C(=O)O[C@H]3CO[Si](C)(C)C(C)(C)C)C2S(=O)(=O)c1ccccc1 (stereo partly drawn) | > 200 | 129 µM | 
CNC(=O)CCC(NC(=O)OC(C)(C)C)C(=O)NC(Cc1ccc([N+](=O)[O-])cc1)C(=O)NCC(=O)NC (stereo not drawn) (Boc-Glu(NHMe)-[Phe(4-NO2)]-Gly-NHMe; configuration not given here) | > 200 | > 200 µM | 
Cc1cn(CCCCOC(=O)NC(CCCN=C(N)N)C(=O)O)c(=O)[nH]c1=O (stereo not drawn) | > 200 | > 200 µM | 
CCOC(=O)C1(c2ccccc2)CCCNCC1 (stereo not drawn) | > 112 | > 112 µM | 
CCOC(=O)/N=N\C(=O)OCC | > 200 | > 200 µM | 
CCOC(=O)/C(=N\OC)C(O)C(F)(F)F (stereo not drawn) | > 200 | > 200 µM | 
Cc1occc1C(=S)Nc1ccc(Cl)c(C(=O)OCC2CC2)c1 | 0.0186 | 53.7 µM | 
COc1cccc(/C=N/[N+](C)(C)C)c1O | > 200 | > 200 µM | 
COc1ccc(N2C=Nn3c(nc4sc(C)c(C)c4c3=O)C2)cc1 |  |  | inactive
CC(C)[Si](OC1=C(c2ccccc2)C(NC(=O)/C=C/c2ccc([N+](=O)[O-])cc2)CCC1)(C(C)C)C(C)C (stereo not drawn) | > 200 | > 200 µM | 
O=C(NCc1ccccc1)OCCO |  |  | inactive
CC(C)(Oc1ccc(/C=C/C(=O)c2ccc(Cl)cc2)cc1)C(=O)Nc1c(Cl)cccc1Cl | > 14.8 | > 14.8 µM | 
NC(N)=N/N=C\CC(O)CO (stereo not drawn) | > 200 | > 200 µM | 
Cn1c(=O)n2c(=O)n(C)c(=O)n2c1=O | > 200 | > 200 µM | 

SMILES | EC50 [µM] | IC50 | outcome
CCCNCCCC(NC(C)=O)C(=O)NCc1ccccc1 (stereo not drawn) | > 813 | > 813 µM | 
CC(=O)OCC1OC(n2c(=S)n(-c3ccc(C)cc3)c(=O)c3ccccc32)C(OC(C)=O)C(OC(C)=O)C1OC(C)=O (stereo not drawn) | > 31.6 | > 31.6 µM | 
O=C(O)c1cccc2cccc(-c3c4ccc(=O)cc-4oc4cc(O)ccc34)c12 | 14.1 | 123 µM | 
C=CCCCC1(C)CCCCNC1=O (stereo not drawn) | 186 | > 200 µM | 
CC(C)C1CN(C(=O)OCc2ccccc2)C2N1C(=O)C2(C)OCc1ccccc1 (stereo not drawn) | > 251 | 97.7 µM | 
NC(=O)NN=C1C[C@H]2CCCC[C@H]2C1 |  |  | inactive
O=C(CSc1cc(-c2ccc(Cl)cc2)s[s+]1)c1ccccc1 | > 200 | 52.5 µM | 
CCOC(=O)C1(C#N)C2(C#N)C(N)=NC(ON=C(C)C)(ON=C(C)C)C12C#N (stereo not drawn) | > 200 | > 200 µM | 
O=C1/C(=C/c2ccco2)NC(=S)N1CN1CCOCC1 | > 200 | 91.2 µM | 
O=c1[nH]c(=S)c2cncnc2n1C1OC(CO)C(O)C1O (stereo not drawn) | > 200 | > 200 µM | 
c1ccc(P2CCc3[nH]c4ccccc4c3C2)cc1 (stereo not drawn) | > 38 | > 38 µM | 
CCOC(=O)c1cc2nc(NC(=O)c3ccccc3)sc2n1C | > 200 | > 200 µM | 
C=CCc1cc(OC)c2c(c1)C(OC(C)=O)CC(c1ccc(OC)c(OC)c1)O2 (stereo not drawn) | > 46.8 | > 46.8 µM | 
COc1cccc2ccc(C(=O)c3ccccc3)nc12 | > 97.7 | > 97.7 µM | 
COP1(=S)OCC2CCC[C@@H]2O1 (stereo partly drawn) |  |  | inactive
Cc1cn(C2CC(ON)C(CO)O2)c(=O)[nH]c1=O (stereo not drawn) | > 200 | > 200 µM | 
NC(=O)c1ccccc1NC(=O)C(=O)Cc1nc2ccccc2[nH]c1=O | > 269 | > 269 µM | 
Cc1ccc(-c2csc(=Nc3c(C)n(C)n(-c4ccccc4)c3=O)n2CCO)cc1 | > 200 | 79.4 µM | 
COc1cc(-c2cc(=O)c3cc(Cl)cc(Cl)c3o2)cc(OC)c1OC | > 100 | > 100 µM | 
COc1ccc(-n2c(=O)c3[nH]c(=S)[nH]c3n(-c3ccc(OC)cc3)c2=S)cc1 | > 200 | > 200 µM | 
O=C(/C=C/c1ccc2c(c1)OCO2)c1cccc2ccccc12 | > 6.61 | > 6.61 µM | 
CN(C)c1cc(CNCCS)nc(CNCCS)c1 | > 200 | 3.47 µM | 

SMILES | EC50 [µM] | IC50 | outcome
O=P1(c2ccccc2)c2ccccc2CCc2ccccc21 | > 200 | 95.5 µM | 
COc1cc2c3c(c1)nc(C)n3C(=O)C(c1ccccc1)S2 (stereo not drawn) |  |  | inactive
COc1cc(C(=O)NCCS(=O)(=O)O)cc(OC)c1OC | > 724 | 631 µM | 
Clc1cccc(Cl)c1C1CSc2ccccc2N=C1c1ccccc1 (stereo not drawn) | > 57.5 | 7.24 µM | 
Cc1ccc(S(=O)(=O)N2CCN(C=S)CC2)cc1 | > 91.2 | > 91.2 µM | 
O[C@@H]1CCNC[C@@H]1CNC12CC3CC(CC(C3)C1)C2 | > 955 | 275 µM | 
COc1ccc2c(c1)OC[C@@H]1c3cc(NS(=O)(=O)c4ccccc4)cc(OCc4ccccc4)c3O[C@H]21 | 10.2 | 13.5 µM | 
Cc1c2ccncc2c(C)c2c1[nH]c1ccc(F)cc12 | > 200 | 0.437 µM | 
CC(=O)/C(=C/n1c(=S)sc2ccccc21)C(=O)Nc1ccc([N+](=O)[O-])cc1 | > 129 | 95.5 µM | 
COC(=O)[C@@H]1COC(CC/C(C)=C/c2ccccc2)=N1 | > 200 | 44.7 µM | 
CCC1S(=O)(=O)OCCOS1(=O)=O | > 1070 | 64.6 µM | 
CN(C)Cc1cc(/C=C/C(=O)c2ccc(Cl)c(Cl)c2)cc(CN(C)C)c1O | > 151 | 6.31 µM | 
CCOC(=O)C(C(=S)Nc1ccccc1)c1nn2c(=O)cc(C)nc2s1 (stereo not drawn) | > 200 | 34.7 µM | 
Cc1ccc(C(=O)Oc2ccc(/C=C3\CCC/C(=C\c4ccc(OC(=O)c5ccc(C)cc5)cc4)C3=O)cc2)cc1 | > 100 | > 100 µM | 
O=Nc1c(O)c2ccccc2[nH]c1=O | > 200 | 45.7 µM | 
CC1=C(C(=O)Nc2cc(F)c(F)cc2F)C(c2ccc3c(c2)OCO3)C(C(=O)Nc2cc(F)c(F)cc2F)=C(C)N1 | > 61.7 | 46.8 µM | 
COc1nc(NC2OC(COC(C)=O)C(OC(C)=O)C(OC(C)=O)C2OC(C)=O)c2c(n1)OCC2=O (stereo not drawn) |  |  | inactive
Fc1cccc(F)c1C1SCc2nc3ccccc3n21 (stereo not drawn) |  | 41.7 µM and 56.2 µM | 
FC(F)(F)c1cccc(N2NC(=S)N3C=CC=CC32)c1 (stereo not drawn) | > 83.2 | > 83.2 µM | 
CCc1cc(-c2ccc(OC)cc2)c(C#N)c(=S)n1C1OC(COC(C)=O)C(OC(C)=O)C(OC(C)=O)C1OC(C)=O (stereo not drawn) | > 200 | 14.5 µM and 12.3 µM | 
O=C1OC(=C(Cl)Cl)C2C3c4ccccc4C(c4ccccc43)C12 (stereo not drawn) | > 100 | 47.9 µM | 
O=C1C=C2C=CC3CC2(O1)C1CCCCN31 (stereo not drawn) | > 1150 | 8.91 µM and 5.37 µM | 

From PubChem BioAssay AID179 (DTP/NCI, 2004)
